Test results as given in patent publication US12564638B2 (SHANGHAITECH UNIVERSITY, priority 2019, dated 2026).
pIC50: −log10 of the molar value.

Assays:
Assay type in all cases: cell-based
[1] = system: HCC827 cells (EGFR Exon19 del, non-small cell lung cancer cells); experiment: Cell viability assay (WST/CCK8), HCC827 cells; details: Homo sapiens, HCC827, 72 h, Table 3, poziotinib-based compounds; HCC827 (Exon19 Del); 72 hours; WST (CCK8); read-out: IC50 (half inhibitory concentration)
In short: (§1)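 Cells seeded at 3 000/well in RPMI1640 complete medium, dosed next day with compounds (top 10 μM, 3-fold, 10 points) for 72 h. Viability read with WST (CCK8) reagent; DMSO as negative control, EGFR TKIs as positive controls; IC50 determined.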

[2] = system: BT474 cells (HER2 positive breast cancer cells); experiment: Cell viability assay (CCK8), BT474 cells; details: Homo sapiens, BT-474, Table 10, BT474, 72 hours, read-out: IC50 (half inhibitory concentration)
In short: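 HER2-overexpressing BT474 cells in RPMI1640 were exposed to compounds for 72 hours over 10 concentrations (3-fold dilution, top 10 μM). Viability was measured with CCK8 reagent against a DMSO control, and IC50 was taken from growth inhibition curves.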

[3] = system: PC9 DCT (Del19+T790M+C797S) cells; experiment: Cell viability assay, PC9 cells with EGFR triple mutation; details: Homo sapiens, PC-9; Table 9; PC9 (Del + T790M + C797S), EGFR triple mutations; read-out: IC50 (half inhibitory concentration)
Description: Construction of EGFR triple mutant cell line PC9 DCT (Dell9+T790M+C797S): The cDNA expressing human EGFR was cloned into pLVX vector, and exon 19 deletion mutation (746-750) and T790M mutation were introduced by point mutation and C797S mutation. Transferred into PC9 cells by lentiviral packaging. Cells stably expressing EGFR triple mutations were obtained by fluorescence screening.
The cDNA sequence expressing human EGFR was cloned into a pLVX vector (GFP^+), and then introduce the EGFR exon 19 deletion (746-750), exon 20 T790M and C797S mutations by were generated by site-directed mutagenesis. The PC9 cells were infected with lentivirus containing the indicated EGFR mutations, and the cells stably expressing EGFR triple mutation were obtained by fluorescence screening.
All of the half inhibitory concentrations (IC50) of these compounds of the present invention were determined with WST reagent from Fuyuan Biotec Company. The specific experiment procedures are as follows: Cancer cells were planted in 96-well-plate at the density of 3 000 cells per well with 100 μL RPMI1640 completed culture medium. In the next day, compounds with indicated concentrations were added to the cells, DMSO was used as the negative control and the EGFR TKIs were used to treat cells as the positive groups. After 72 hours drug treatment, cell viability was measured by using the WST reagent following the instructions. The growth inhibition curve of the compounds on cells were plotted by Prism GraphPad, and the compounds IC50 calculated from it.
The cell viability assays were taken to determine the anti-tumor activity of these indicated compounds in PC9 cells, which overexpressed Exon 19del+T790M+C797S triple mutant EGFR.

[4] = system: PC9 cells (EGFR Exon 19 del, non-small cell lung cancer cells); experiment: Cell viability assay (WST/CCK8), PC9 cells; details: Homo sapiens, PC-9; Table 3, poziotinib-based compounds; PC9 (Exon 19 Del); 72 hours; WST (CCK8); read-out: IC50 (half inhibitory concentration)
In short: as §1

| Structure (SMILES) | pIC50 [1] | pIC50 [2] | pIC50 [3] | pIC50 [4] |
| --- | --- | --- | --- | --- |
| COc1cc2ncnc(Nc3ccc(Cl)c(Cl)c3F)c2cc1OC1CCNCC1 [Poziotinib derivative A (SIAIS219149), N-(3,4-dichloro-2-fluorophenyl)-7-methoxy-6-(piperidin-4-yloxy)quinazolin-4-amine] | 8.15 | 7.09 | 8.28 | 7.77 |
| COc1cc2ncnc(Nc3ccc(Cl)c(Cl)c3F)c2cc1OC1CCN(C(=O)CCSc2cccc3c2CN(C2CCC(=O)NC2=O)C3=O)CC1 (stereo not shown) [SIAIS219165, 3-(4-((3-(4-((4-((3,4-dichloro-2-fluorophenyl)amino)-7-methoxyquinazolin-6-yl)oxy)piperidin-1-yl)-3-oxopropyl)thio)-1-oxoisoindolin-2-yl)piperidine-2,6-dione] | 7.64 | 8.57 | 8.34 | 8.52 |
| COc1cc2ncnc(Nc3ccc(Cl)c(Cl)c3F)c2cc1OC1CCN(C(=O)CCCCSc2cccc3c2CN(C2CCC(=O)NC2=O)C3=O)CC1 (stereo not shown) [SIAIS219167, 3-(4-((5-(4-((4-((3,4-dichloro-2-fluorophenyl)amino)-7-methoxyquinazolin-6-yl)oxy)piperidin-1-yl)-5-oxopentyl)thio)-1-oxoisoindolin-2-yl)piperidine-2,6-dione] | 7.51 | – | 8.39 | – |
| COc1cc2ncnc(Nc3ccc(Cl)c(Cl)c3F)c2cc1OC1CCN(C(=O)CCCCCSc2cccc3c2CN(C2CCC(=O)NC2=O)C3=O)CC1 (stereo not shown) [SIAIS219168, 3-(4-((6-(4-((4-((3,4-dichloro-2-fluorophenyl)amino)-7-methoxyquinazolin-6-yl)oxy)piperidin-1-yl)-6-oxohexyl)thio)-1-oxoisoindolin-2-yl)piperidine-2,6-dione] | 7.40 | – | 8.54 | – |
| COc1cc2ncnc(Nc3ccc(Cl)c(Cl)c3F)c2cc1OC1CCN(C(=O)CCCCCCSc2cccc3c2CN(C2CCC(=O)NC2=O)C3=O)CC1 (stereo not shown) [SIAIS219169, 3-(4-((7-(4-((4-((3,4-dichloro-2-fluorophenyl)amino)-7-methoxyquinazolin-6-yl)oxy)piperidin-1-yl)-7-oxoheptyl)thio)-1-oxoisoindolin-2-yl)piperidine-2,6-dione] | 7.42 | – | 8.44 | – |
| COc1cc2ncnc(Nc3ccc(Cl)c(Cl)c3F)c2cc1OC1CCN(C(=O)CSc2cccc3c2C(=O)N(C2CCC(=O)NC2=O)C3=O)CC1 (stereo not shown) [SIAIS249014, 4-((2-(4-((4-((3,4-dichloro-2-fluorophenyl)amino)-7-methoxyquinazolin-6-yl)oxy)piperidin-1-yl)-2-oxoethyl)thio)-2-(2,6-dioxopiperidin-3-yl)isoindoline-1,3-dione] | 7.29 | – | 8.74 | – |
| COc1cc2ncnc(Nc3ccc(Cl)c(Cl)c3F)c2cc1OC1CCN(C(=O)CCCCSc2cccc3c2C(=O)N(C2CCC(=O)NC2=O)C3=O)CC1 (stereo not shown) [SIAIS249017, 4-((5-(4-((4-((3,4-dichloro-2-fluorophenyl)amino)-7-methoxyquinazolin-6-yl)oxy)piperidin-1-yl)-5-oxopentyl)thio)-2-(2,6-dioxopiperidin-3-yl)isoindoline-1,3-dione] | 7.64 | – | 8.66 | – |

Next, values leading:

| pIC50 [1] | pIC50 [2] | pIC50 [3] | pIC50 [4] | Structure (SMILES) |
| --- | --- | --- | --- | --- |
| 8.09 | 7.44 | 8.62 | 7.42 | COc1cc2ncnc(Nc3ccc(Cl)c(Cl)c3F)c2cc1OC1CCN(C(=O)CNc2cccc3c2C(=O)N(C2CCC(=O)NC2=O)C3=O)CC1 (stereo not shown) [SIAIS219177, 4-((2-(4-((4-((3,4-dichloro-2-fluorophenyl)amino)-7-methoxyquinazolin-6-yl)oxy)piperidin-1-yl)-2-oxoethyl)amino)-2-(2,6-dioxopiperidin-3-yl)isoindoline-1,3-dione] |
| 7.69 | – | 8.41 | – | COc1cc2ncnc(Nc3ccc(Cl)c(Cl)c3F)c2cc1OC1CCN(C(=O)CCCNc2cccc3c2C(=O)N(C2CCC(=O)NC2=O)C3=O)CC1 (stereo not shown) [SIAIS219179, 4-((4-(4-((4-((3,4-dichloro-2-fluorophenyl)amino)-7-methoxyquinazolin-6-yl)oxy)piperidin-1-yl)-4-oxobutyl)amino)-2-(2,6-dioxopiperidin-3-yl)isoindoline-1,3-dione] |
| 7.57 | – | 8.48 | – | COc1cc2ncnc(Nc3ccc(Cl)c(Cl)c3F)c2cc1OC1CCN(C(=O)CCCCNc2cccc3c2C(=O)N(C2CCC(=O)NC2=O)C3=O)CC1 (stereo not shown) [SIAIS219180, 4-((5-(4-((4-((3,4-dichloro-2-fluorophenyl)amino)-7-methoxyquinazolin-6-yl)oxy)piperidin-1-yl)-5-oxopentyl)amino)-2-(2,6-dioxopiperidin-3-yl)isoindoline-1,3-dione] |
| 7.64 | – | 8.42 | – | COc1cc2ncnc(Nc3ccc(Cl)c(Cl)c3F)c2cc1OC1CCN(C(=O)CCCCCNc2cccc3c2C(=O)N(C2CCC(=O)NC2=O)C3=O)CC1 (stereo not shown) [SIAIS219181, 4-((6-(4-((4-((3,4-dichloro-2-fluorophenyl)amino)-7-methoxyquinazolin-6-yl)oxy)piperidin-1-yl)-6-oxohexyl)amino)-2-(2,6-dioxopiperidin-3-yl)isoindoline-1,3-dione] |
| 7.34 | 7.06 | 8.33 | 6.89 | COc1cc2ncnc(Nc3ccc(Cl)c(Cl)c3F)c2cc1OC1CCN(C(=O)CCSc2cccc3c2C(=O)N(C2CCC(=O)NC2=O)C3=O)CC1 (stereo not shown) [SIAIS249015, 4-((3-(4-((4-((3,4-dichloro-2-fluorophenyl)amino)-7-methoxyquinazolin-6-yl)oxy)piperidin-1-yl)-3-oxopropyl)thio)-2-(2,6-dioxopiperidin-3-yl)isoindoline-1,3-dione] |
| 7.54 | – | 8.82 | – | COc1cc2ncnc(Nc3ccc(Cl)c(Cl)c3F)c2cc1OC1CCN(C(=O)CCCSc2cccc3c2C(=O)N(C2CCC(=O)NC2=O)C3=O)CC1 (stereo not shown) [SIAIS249016, 4-((4-(4-((4-((3,4-dichloro-2-fluorophenyl)amino)-7-methoxyquinazolin-6-yl)oxy)piperidin-1-yl)-4-oxobutyl)thio)-2-(2,6-dioxopiperidin-3-yl)isoindoline-1,3-dione] |
